According to patent publication US5594024A, “Centrally actig substituted phenylazacycloalkanes” (priority 1995, dated 1997):
“Also recorded” adds a separate entry of the source.

Experiments:
5-HT1A = target: T1, 5-HT1A (Rattus norvegicus, UniProt P19327); test: 5-HT1A radioligand binding ([3H]-8-OH-DPAT); parameters: species or system rat (male Sprague-Dawley)
T1 construct: the whole brain with the exception of the brainstem and cerebellum was rapidly removed; from tissue
T1 sequence (P19327 1-422): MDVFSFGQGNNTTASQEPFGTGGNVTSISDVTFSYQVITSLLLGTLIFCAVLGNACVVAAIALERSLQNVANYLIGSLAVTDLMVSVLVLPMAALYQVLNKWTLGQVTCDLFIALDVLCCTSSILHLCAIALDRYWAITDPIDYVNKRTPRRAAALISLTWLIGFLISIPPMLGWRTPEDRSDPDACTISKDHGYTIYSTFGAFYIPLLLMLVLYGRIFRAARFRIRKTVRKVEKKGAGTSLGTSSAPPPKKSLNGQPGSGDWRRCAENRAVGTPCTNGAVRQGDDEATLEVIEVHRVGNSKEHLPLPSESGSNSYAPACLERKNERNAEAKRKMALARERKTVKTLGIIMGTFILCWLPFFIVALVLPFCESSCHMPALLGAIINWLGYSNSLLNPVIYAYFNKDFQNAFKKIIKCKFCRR
How it was run: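 Rat forebrain membranes (whole brain minus brainstem and cerebellum) in 50 mM Tris pH 8.0 with NaCl, CaCl2, MgCl2 and 10 μM pargyline; 1 nM [3H]-8-OH-DPAT, 15 min at 37° C., filtration. Nonspecific binding defined with 10 μM 5-HT; IC50 by semi-log plot and linear regression.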

5-HT receptor = test: 5-HTP accumulation (5-HT synthesis rate) in non-pretreated rats after NSD 1015; format: in vivo, rat (male Sprague-Dawley)
Experimental: observations are commented to the right. After the session the rats were
accumulation in the NErich cortical regions and 5HTP in the limbic
Injection volumes were 5 mL/kg.

dopamine autoreceptors = test: GBL-model (DA synthesis rate; presynaptic dopamine autoreceptors); format: in vivo, rat
Description: The effects on DOPA accumulation in the GBL-model is considered to reflect an event at the presynaptic dopamine autoreceptors (for further details, see Svensson et al., Nunyn-Schmiedeberg's Arch. Pharm., 334, 234(1986)).

[1] = tested on: central dopamine receptors; test: Locomotor activity and DA synthesis in reserpinized rats; format: in vivo, rat; details: reserpinized rats
[2] = tested on: d-amphetamine-induced hyperactivity; test: d-Amphetamine-induced hyperactivity in habituated rats; format: in vivo, rat
DA receptor = test: DOPA accumulation (DA synthesis rate) in non-pretreated rats after NSD 1015; details: for duration of the increase in brain DOPA accumulation: 50 μmol/kg
Experimental: injected with NSD 1015 (100 mg/kg, i.p.) and then killed 30 min later.
In-vivo determination of rat brain monoamine metabolites and tyrosine and tryptophan hydroxylation (biochemically monitored DA and 5-HT receptor agonist or antagonist activity).
The compounds under evaluation were tested biochemically for central DA and 5-HT receptor (pre- and/or postsynaptic) stimulating and/or blocking activity. The concept of this biochemical screening method is that a DA or 5-HT receptor agonist will stimulate the receptor and through regulatory negative feed-back systems induce a decline in tyrosine or tryptophan hydroxylating activity, respectively, and a subsequent reduction in the synthesis rate of DA and 5-HT in the presynaptic neuron. […] The biochemical experiments and the determinations of Dopa and 5-HTP by means of HPLC with electrochemical detection were performed. The antagonistic effects were seen as increases in the synthesis rate (n=4), as a result of the positive feed-back upregulation of synthesis. The effects on Dopa and 5-HTP accumulation are expressed as % of controls, which were: DOPA limbic system=447±23 ng/g and DOPA striatum=1045±47ng/g, 5-HTP limbic region 241±2 ng/g (Table 2).
Animals used in the biochemical and motor activity experiments were male rats of the Sprague-Dawley strain (ALAB, Sollentuna, Sweden), weighing 200-300 g. The rats were kept 5 per cage with free access to water and food (except for the starved animals for the experiments with per oral administration, who were only allowed water the last 18 hours before testing), at least one week from arrival until used in the experiments.
All substances to be tested were dissolved in saline immediately before use, occasionally with the addition of a few drops of glacial acetic acid and/or moderate heating in order to obtain complete dissolution. Injection volumes were 5 mL/kg.
Analysis of variance (ANOVA) followed by Fischer's test was used for the statistical calculations. P values less than 0.05 were regarded statistically significant.
DOPA accumulation (DA synthesis rate) in non-pretreated rats (Table 2). After the locomotor activity session (see Table 2, above) the rats were injected with the decarboxylase inhibitor NSD 1015 (100 mg/kg, sc) and killed 30 minutes later. The DOPA accumulation in the DA -rich limbic and striatal and the NE-rich cortical (mainly hemispheres) brain areas were expressed as % of saline treated controls.
DOPA accumulation, time course after s.c. and p.o. administration (Table 2). […] NSD 1015 (100 mg/kg, sc) was injected 30 minutes before death. The data are expressed as % of saline treated controls.

## CCCN1CCC[C@@H](c2cccc(C#N)c2)C1 [S-(-)-34, S-(-)-3-(3-Cyanophenyl-N-n-propyl)piperidine]
5-HT1A
  affinity for the 5-HT1A receptors in vitro (in words): very low affinity for the 5-HT1A receptors
5-HT1A; [3H]-8-OH-DPAT, rat cortex, read-out: in vitro binding IC50, 5HT1A
  IC50: 75 µM
5-HT receptor; 25 μmol/kg, sc and above
  brain 5-HTP formation, elevation: 45-50%
5-HT receptor; 50 sc
  5-HTP acc Limbic Region: 144 ± 6 % of saline controls
5-HT receptor; 100 sc
  5-HTP acc Limbic Region: 148 ± 10 % of saline controls
5-HT receptor; 200 sc
  5-HTP acc Limbic Region: 80 ± 12 % of saline controls
5-HT receptor; non-pretreated rats
  brain 5-HTP levels (in words): elevated brain 5-HTP levels
Dopamine autoreceptors; 100 μmol/kg, sc
  blockade of the apomorphine effect in the GBL-model: only a partial blockade
Dopamine autoreceptors; 200 μmol/kg, sc
  effect per se in the GBL-model: inactive per se
Dopamine autoreceptors; 200 μmol/kg, sc, 40 minutes
  blockade of the apomorphine effect in the GBL-model: blocked the effect of apomorphine
Dopamine autoreceptors; rat, in vivo
  blockade of apomorphine in the GBL-model (in words): blocks apomorphine in the GBL-model
[1]
  DA synthesis rate / DOPA accumulation in reserpinized rats (in words): failed to affect the DOPA accumulation in reserpinized
[2]; 64 mg/kg, sc, d-amphetamine 5.0 mg/kg
  effect on d-amphetamine-induced hyperactivity: failed to block the hyperactivity
[2]; d-amphetamine 0.5 mg/kg, sc
  effect combined with lower dose of d-amphetamine: additive stimulatory effect
[2]; even at high doses
  block of d-amphetamine-induced hyperactivity (in words): failed to block d-amphetamine-induced hyperactivity even at high doses
[2]; test compound 14 mg/kg, sc, d-amphetamine 5 mg/kg
  effect on activation induced by high dose d-amphetamine: failed to affect the strong activation
DA receptor; po
  duration of the increase in brain DOPA accumulation: 1.5 to 2.5 h
DA receptor; s.c.
  duration of the increase in brain DOPA accumulation: 2.5 to 4.5 h
  cortical DOPA formation (in words): slightly, but statistically significantly increased; also recorded: slight increase in cortical DOPA accumulation
DA receptor; 3.1-200 μmol/kg, s.c.
  DOPA accumulation in limbic and striatal brain regions (in words): elevated in the limbic (limb.) and striatal (stri) brain regions with a maximal response equal to that observed for classical neuroleptics such as haloperidol
DA receptor; 50 sc
  DOPA acc Cortex: 155 ± 9 % of saline controls
  DOPA acc Stratium: 285 ± 3 % of saline controls
DA receptor; 100 sc
  DOPA acc Cortex: 158 ± 8 % of saline controls
  DOPA acc Stratium: 268 ± 16 % of saline controls
DA receptor; 200 sc
  DOPA acc Cortex: 148 ± 16 % of saline controls
  DOPA acc Stratium: 294 ± 26 % of saline controls
DA receptor; from DOPA accumulation in the striatum after sc and po administration
  estimated availability: 50%
